Test results: publication PMC12018053 (Biochemistry and Biophysics Reports, 2025)
Converted amounts (≈) assume the structure as drawn.

Key:
Human sEH = molecular target: T1, Human sEH (Homo sapiens, UniProt P34913); assay: sEH fluorescent-based inhibition assay; type: biochemical
T1 sequence (P34913 1-555): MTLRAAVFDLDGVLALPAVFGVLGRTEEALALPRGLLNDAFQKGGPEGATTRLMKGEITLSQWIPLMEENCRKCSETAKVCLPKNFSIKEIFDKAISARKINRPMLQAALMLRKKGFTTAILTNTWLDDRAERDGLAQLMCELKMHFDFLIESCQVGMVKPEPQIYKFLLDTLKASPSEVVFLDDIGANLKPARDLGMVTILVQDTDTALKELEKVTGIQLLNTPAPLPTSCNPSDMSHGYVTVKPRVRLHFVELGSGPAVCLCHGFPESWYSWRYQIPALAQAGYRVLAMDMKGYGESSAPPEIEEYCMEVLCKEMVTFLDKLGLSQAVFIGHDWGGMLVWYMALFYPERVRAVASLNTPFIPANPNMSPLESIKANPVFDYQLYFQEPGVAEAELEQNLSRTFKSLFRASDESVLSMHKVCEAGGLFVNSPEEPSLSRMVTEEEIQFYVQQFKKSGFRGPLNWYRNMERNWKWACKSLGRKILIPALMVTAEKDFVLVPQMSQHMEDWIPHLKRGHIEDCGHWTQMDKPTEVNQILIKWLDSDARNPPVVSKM

Mouse sEH = molecular target: T2, Mouse sEH (Mus musculus, UniProt P34914); assay: sEH fluorescent-based inhibition assay; type: biochemical
T2 sequence (P34914 1-554): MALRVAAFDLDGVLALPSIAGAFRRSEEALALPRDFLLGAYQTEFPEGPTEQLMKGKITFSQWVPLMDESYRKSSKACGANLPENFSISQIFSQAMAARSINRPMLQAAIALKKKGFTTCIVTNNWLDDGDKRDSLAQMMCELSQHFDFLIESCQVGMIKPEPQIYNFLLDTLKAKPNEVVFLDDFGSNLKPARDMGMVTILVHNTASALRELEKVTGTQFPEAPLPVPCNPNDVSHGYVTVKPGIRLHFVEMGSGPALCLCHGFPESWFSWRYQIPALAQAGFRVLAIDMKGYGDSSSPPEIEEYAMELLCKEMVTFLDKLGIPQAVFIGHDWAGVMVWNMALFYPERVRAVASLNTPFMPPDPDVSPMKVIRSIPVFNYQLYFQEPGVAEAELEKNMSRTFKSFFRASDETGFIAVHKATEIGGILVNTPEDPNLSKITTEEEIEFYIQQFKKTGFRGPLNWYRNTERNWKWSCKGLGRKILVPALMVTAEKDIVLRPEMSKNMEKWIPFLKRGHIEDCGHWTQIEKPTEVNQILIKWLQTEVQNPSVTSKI

Rat sEH = molecular target: T3, Rat sEH (Rattus norvegicus, UniProt P80299); assay: sEH fluorescent-based inhibition assay; type: biochemical
T3 sequence (P80299 1-554): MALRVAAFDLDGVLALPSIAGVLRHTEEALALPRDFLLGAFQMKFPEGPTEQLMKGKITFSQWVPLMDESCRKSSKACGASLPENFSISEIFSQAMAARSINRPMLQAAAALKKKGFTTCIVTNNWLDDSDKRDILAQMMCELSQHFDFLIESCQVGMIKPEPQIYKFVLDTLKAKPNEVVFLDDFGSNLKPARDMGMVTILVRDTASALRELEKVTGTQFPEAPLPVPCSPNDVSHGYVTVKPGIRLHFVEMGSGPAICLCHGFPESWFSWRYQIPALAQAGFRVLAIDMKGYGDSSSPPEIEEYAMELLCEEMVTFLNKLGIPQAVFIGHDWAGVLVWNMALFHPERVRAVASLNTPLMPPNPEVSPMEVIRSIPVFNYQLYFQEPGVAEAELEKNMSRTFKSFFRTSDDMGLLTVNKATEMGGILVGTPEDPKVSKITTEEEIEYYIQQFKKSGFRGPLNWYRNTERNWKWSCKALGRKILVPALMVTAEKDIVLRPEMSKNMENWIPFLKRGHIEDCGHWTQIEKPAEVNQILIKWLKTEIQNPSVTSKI

physchem = details: sodium phosphate buffer, 24 °C, pH 7.4, aqueous buffer, kinetic from dmso stock
[1] = system: temporomandibular joint (TMJ); details: local administration; cited from earlier work
rats = details: 1 mg/kg; cited from earlier work

SMILES | IC50 (Human sEH) [nM] | IC50 (Mouse sEH) [nM] | IC50 (Rat sEH) [nM] | solubility (physchem) [µM] | Effect on formalin-induced hyperalgesia within the temporomandibular joint [1] | Effect on NTG-induced trigeminal hyperalgesia (rats)
O=C(Nc1ccc(-c2nccc3ccccc23)cc1)C1CCN(S(=O)(=O)c2ccccc2Cl)CC1 [Compound 4a, 1-((2-chlorophenyl)sulfonyl)-N-(4-(isoquinolin-1-yl)phenyl)piperidine-4-carboxamide] | 3.7 | 283 | 3.7 | 56 (≈ 28.3 µg/mL) |  | 
O=C(Nc1ccc(-c2cc3ccccc3cn2)cc1)C1CCN(S(=O)(=O)c2ccccc2Cl)CC1 [Compound 4b, 1-((2-chlorophenyl)sulfonyl)-N-(4-(isoquinolin-3-yl)phenyl)piperidine-4-carboxamide] | 18.7 | 236 | 11.5 | 51.6 (≈ 26.1 µg/mL) |  | 
O=C(Nc1ccc(-c2cncc3ccccc23)cc1)C1CCN(S(=O)(=O)c2ccccc2Cl)CC1 [Compound 4c, 1-((2-chlorophenyl)sulfonyl)-N-(4-(isoquinolin-4-yl)phenyl)piperidine-4-carboxamide] | 0.4 | 22.3 | 0.8 | 49.2 (≈ 24.9 µg/mL) |  | 
O=C(Nc1ccc(-c2cccc3cnccc23)cc1)C1CCN(S(=O)(=O)c2ccccc2Cl)CC1 [Compound 4d, 1-((2-chlorophenyl)sulfonyl)-N-(4-(isoquinolin-5-yl)phenyl)piperidine-4-carboxamide] | 0.4 | 30.6 | 2.2 | 40 (≈ 20.3 µg/mL) |  | 
O=C(Nc1ccc(-c2ccc3cnccc3c2)cc1)C1CCN(S(=O)(=O)c2ccccc2Cl)CC1 [Compound 4e, 1-((2-chlorophenyl)sulfonyl)-N-(4-(isoquinolin-6-yl)phenyl)piperidine-4-carboxamide] | 1.8 | 51.3 | 0.5 | 55.8 (≈ 28.2 µg/mL) |  | 
O=C(Nc1ccc(-c2cccc3ccncc23)cc1)C1CCN(S(=O)(=O)c2ccccc2Cl)CC1 [Compound 4g, 1-((2-chlorophenyl)sulfonyl)-N-(4-(isoquinolin-8-yl)phenyl)piperidine-4-carboxamide] | 1.4 | 69 | 4.7 | 65.6 (≈ 33.2 µg/mL) |  | 
O=C(Nc1ccc(-c2ccccn2)cc1)C1CCN(S(=O)(=O)c2ccccc2Cl)CC1 [Compound 4h, 1-((2-chlorophenyl)sulfonyl)-N-(4-(pyridin-2-yl)phenyl)piperidine-4-carboxamide] |  | 188 | 1.9 | 66.7 (≈ 30.4 µg/mL) |  | 
O=C(Nc1ccc(-c2cccnc2)cc1)C1CCN(S(=O)(=O)c2ccccc2Cl)CC1 [Compound 4i, 1-((2-chlorophenyl)sulfonyl)-N-(4-(pyridin-3-yl)phenyl)piperidine-4-carboxamide] | 1.3 | 127 | 2.8 | 51.1 (≈ 23.3 µg/mL) |  | 
O=C(Nc1ccc(-c2ccncc2)cc1)C1CCN(S(=O)(=O)c2ccccc2Cl)CC1 [Compound 4j, 1-((2-chlorophenyl)sulfonyl)-N-(4-(pyridin-4-yl)phenyl)piperidine-4-carboxamide] | 1.8 | 133 | 3.1 | 50.9 (≈ 23.2 µg/mL) |  | 
Cc1cccc(-c2ccc(NC(=O)C3CCN(S(=O)(=O)c4ccccc4Cl)CC3)cc2)n1 [Compound 4k, 1-((2-chlorophenyl)sulfonyl)-N-(4-(6-methylpyridin-2-yl)phenyl)piperidine-4-carboxamide] | 4.7 | 226 | 1.6 | 43.4 (≈ 20.4 µg/mL) |  | 
Cc1ccnc(-c2ccc(NC(=O)C3CCN(S(=O)(=O)c4ccccc4Cl)CC3)cc2)c1 [Compound 4l, 1-((2-chlorophenyl)sulfonyl)-N-(4-(4-methylpyridin-2-yl)phenyl)piperidine-4-carboxamide] | 5.1 | 499 | 10.3 | 36.4 (≈ 17.1 µg/mL) |  | 
Cc1cncc(-c2ccc(NC(=O)C3CCN(S(=O)(=O)c4ccccc4Cl)CC3)cc2)c1 [Compound 4m, 1-((2-chlorophenyl)sulfonyl)-N-(4-(5-methylpyridin-3-yl)phenyl)piperidine-4-carboxamide] | 2.6 | 175 | 1.1 | 49.4 (≈ 23.2 µg/mL) |  | 
Cc1cc(-c2ccc(NC(=O)C3CCN(S(=O)(=O)c4ccccc4Cl)CC3)cc2)ccn1 [Compound 4n, 1-((2-chlorophenyl)sulfonyl)-N-(4-(2-methylpyridin-4-yl)phenyl)piperidine-4-carboxamide] | 5.8 | 259 | 3.6 | 53 (≈ 24.9 µg/mL) |  | 
CCC(=O)N1CCC(NC(=O)Nc2ccc(OC(F)(F)F)cc2)CC1 [TPPU] |  |  |  |  | prevented formalin-induced hyperalgesia | 
NC(=O)c1cccc(-c2cc(OC(=O)NC3CCCCC3)ccc2O)c1 [URB937] |  |  |  |  |  | reversed NTG-induced trigeminal hyperalgesia
